Legend:
Type in all cases: in vivo
Cydia pomonella = assay: Insecticidal test against Cydia pomonella; conditions: 168 h, 100 ppm water dilution, 0.2 ml on surface of artificial diet, eggs just before hatching, after 7 days
Procedure, shortened: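 A 100 ppm aqueous dilution of formulated compound (0.2 ml) was spread onto 3 g artificial diet and air-dried. About 20 near-hatching Cydia pomonella eggs on wax paper were added, four replicates per treatment. Larval mortality was recorded after 7 days.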

Tetranychus urticae = assay: Acaricidal test against Tetranychus urticae; conditions: 500 ppm water dilution, 15 ml sprayed over brush bean with female adults set free 6 days before; after 8 days
Method: About twenty female adults of Tetranychus urticae were set free on brush bean (Phaseolus vulgaris) in the primary leaf stage, which had been potted in a plastic cup for 7 days after the seeding. After 6 days, a 200-fold water dilution (500 ppm) of a test compound formulation obtained according to Formulation Example 1 or 2 was sprayed at a volume of 15 ml over the plant. After 8 days, each compound was evaluated for acaricidal activity on the following criteria.
−: almost no damage and completely no surviving mites
±: slight damage and some few surviving mites
+: rather smaller damage and a rather fewer surviving mites than non-treatment case
++: same as non-treatment case

Musca domestica = assay: Insecticidal test against Musca domestica; conditions: 24 h, 500 ppm water dilution, 0.7 ml on filter paper with sucrose, female adults, after 1 day, read-out: mortality
Procedure, shortened: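 Filter paper treated with 500 ppm water dilution of formulated compound, with sucrose as diet; ten female adult houseflies confined in covered cup. Mortality determined from adult survival after 1 day.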

Spodoptera litura = assay: Insecticidal test against Spodoptera litura; conditions: 144 h, 500 ppm water dilution, 2 ml absorbed in 13 g artificial diet, fourth-instar larvae, after 6 days
Method: A 200-fold water dilution (500 ppm) of a test compound formulation obtained according to Formulation Example 1 or 2 was absorbed at a volume of 2 ml in an artificial diet (Insecta LF available from Nihon Nosan K.K.) having a weight of 13 g, which had been prepared in a polyethylene cup having a diameter of 11 cm. Five fourth-instar larvae of Spodoptera litura were set free in the cup. After 6 days, the survival of the larvae was examined to determine the mortality.

Heliothis virescens = assay: Insecticidal test against Heliothis virescens; conditions: 168 h, 100 ppm water dilution, 0.2 ml on surface of artificial diet, second-instar larvae, after 7 days
Method: A water dilution (100 ppm) of a test compound formulation obtained according to Formulation Example 1 was added dropwise at a volume of 0.2 ml and uniformly spread over the surface of an artificial diet having a weight of 3 g, which had been prepared in a 30 ml plastic cup. After air drying, one second-instar larva of Heliothis virescens was set free in each cup. Ten larvae were used for each treatment. After 7 days, the mortality of the larvae was determined.

Plutella xylostella = assay: Insecticidal test against Plutella xylostella; conditions: 96 h, 50 ppm water dilution sprayed over potted cabbages, 25 ml per pot, third-instar larvae, after 4 days, read-out: mortality
Method: To a water dilution (50 ppm) of a test compound formulation obtained according to Formulation Example 1 was added a spreading agent (New RINOU available from Nihon Noyaku K.K.) at a dilution ratio of 3000-fold. The dilution was sprayed over potted cabbages at the four to five leaf stage at a volume of 25 ml per pot. After the treated plants were air dried, ten third-instar larvae of Plutella xylostella were set free on each pot. After 4 days, the mortality was determined.

Helicoverpa armigera = assay: Insecticidal test against Helicoverpa armigera; conditions: 120 h, 100 ppm water dilution, cotton leaf fragment immersed 10 seconds, third-instar larvae, after 5 days
Method: A cotton leaf fragment (diameter, 5 cm) was immersed for 10 seconds Lin a water dilution (100 ppm) of a test compound formulation obtained according to Formulation Example 1. This fragment was taken out from the dilution, air dried, and placed in a polyethylene cup having a diameter of 5.5 cm. One third-instar larva of Helicoverpa armigera was set free in each cup. Ten larvae were used for each treatment. After 5 days, the mortality of the larvae was determined.

| Structure (SMILES) | mortality at 100 µg/mL (Cydia pomonella) [%] | acaricidal activity (Tetranychus urticae) | mortality at 500 µg/mL (Spodoptera litura) [%] | mortality at 100 µg/mL (Heliothis virescens) [%] | mortality at 50 µg/mL (Plutella xylostella) [%] | other results |
| --- | --- | --- | --- | --- | --- | --- |
| CON=Cc1ccc(OCCCCOc2c(Cl)cc(OCC=C(Cl)Cl)cc2Cl)cc1 [(306), 4-(4-(2,6-dichloro-4-(3,3-dichloro-2-propenyloxy)phenoxy)butyloxy)benzaldehyde O-methyloxime] | ≥ 80 | “−” or “±” |  |  |  |  |
| CC(=NOCCCCCCOc1c(Cl)cc(OCC=C(Cl)Cl)cc1Cl)C(C)C [(583), 3-methyl-2-butanone O-(6-(2,6-dichloro-4-(3,3-dichloro-2-propenyloxy)phenoxy)hexyl)oxime] |  | “−” or “±” |  |  |  |  |
| CC(CC(C)(C)C)=NOCCCCCCOc1c(Cl)cc(OCC=C(Cl)Cl)cc1Cl [(593), 4,4-dimethyl-2-pentanone O-(6-(2,6-dichloro-4-(3,3-dichloro-2-propenyloxy)phenoxy)hexyl)oxime] |  | “−” or “±” |  |  |  |  |
| CC(COCCOCCOc1c(Cl)cc(OCC=C(Cl)Cl)cc1Cl)=NOC(C)(C)C [(203), 2-(2-(2,6-dichloro-4-(3,3-dichloro-2-propenyloxy)phenoxy)-ethoxy)ethoxyacetone O-tert-butyloxime] |  |  | ≥ 80 |  |  | mortality at 500 µg/mL (Musca domestica): ≥ 80% |
| ClC(Cl)=CCON=CCOCCCOc1c(Cl)cc(OCC=C(Cl)Cl)cc1Cl [(33), 3-(2,6-dichloro-4-(3,3-dichloro-2-propenyloxy)phenoxy)propyloxyacetaldehyde O-(3,3-dichloro-2-propenyl)oxime] | ≥ 80 |  | ≥ 80 | ≥ 80 | ≥ 80 |  |
| CC(C)(C)ON=CCCOc1c(Cl)cc(OCC=C(Cl)Cl)cc1Cl [(133), 3-(2,6-dichloro-4-(3,3-dichloro-2-propenyloxy)phenoxy)propionaldehyde O-tert-butyloxime] |  |  | ≥ 80 |  |  |  |
| CC(CC(C)(C)C)=NOCCCCCOc1c(Cl)cc(OCC=C(Cl)Cl)cc1Cl [(592), 4,4-dimethyl-2-pentanone O-(5-(2,6-dichloro-4-(3,3-dichloro-2-propenyloxy)phenoxy)pentyl)oxime] |  | “−” or “±” |  |  |  |  |
| CC(COCCCCOc1c(Cl)cc(OCC=C(Cl)Cl)cc1Cl)=NOC(C)(C)C [(103), 4-(2,6-dichloro-4-(3,3-dichloro-2-propenyloxy)phenoxy)butyloxyacetone O-tert-butyloxime] |  |  | ≥ 80 |  | ≥ 80 |  |
| ClC(Cl)=CCON=CCCCCCOc1c(Cl)cc(OCC=C(Cl)Cl)cc1Cl [(76), 6-(2,6-dichloro-4-(3,3-dichloro-2-propenyloxy)phenoxy)hexanal O-(3,3-dichloro-2-propenyl)oxime] | ≥ 80 |  |  | ≥ 80 | ≥ 80 |  |
| ClC(Cl)=CCOc1cc(Cl)c(OCCCON=Cc2ccccc2)c(Cl)c1 [(523), benzaldehyde O-(3-(2,6-dichloro-4-(3,3-dichloro-2-propenyloxy)phenoxy)propyl)oxime] |  |  |  | ≥ 80 | ≥ 80 |  |
| CC(C)(C)ON=CCCCCCOc1c(Cl)cc(OCC=C(Cl)Cl)cc1Cl [(134), 6-(2,6-dichloro-4-(3,3-dichloro-2-propenyloxy)phenoxy)hexanal O-tert-butyloxime] |  |  | ≥ 80 | ≥ 80 | ≥ 80 |  |
| CC(C)(C)ON=CCOCCCCOc1c(Cl)cc(OCC=C(Cl)Cl)cc1Cl [(6), 4-(2,6-dichloro-4-(3,3-dichloro-2-propenyloxy)phenoxy)butyloxyacetaldehyde O-tert-butyloxime] | ≥ 80 | “−” or “±” |  |  |  | mortality at 500 µg/mL (Musca domestica): ≥ 80% |
| ClC(Cl)=CCON=CCOCCCCCCOc1c(Cl)cc(OCC=C(Cl)Cl)cc1Cl [(34), 6-(2,6-dichloro-4-(3,3-dichloro-2-propenyloxy)phenoxy)hexyloxyacetaldehyde O-(3,3-dichloro-2-propenyl)oxime] | ≥ 80 |  | ≥ 80 | ≥ 80 | ≥ 80 |  |
| CC(CC(C)C)=NOCCCCCCOc1c(Cl)cc(OCC=C(Cl)Cl)cc1Cl [(589), 4-methyl-2-pentanone O-(6-(2,6-dichloro-4-(3,3-dichloro-2-propenyloxy)phenoxy)hexyl)oxime] |  | “−” or “±” |  |  | ≥ 80 |  |
| CCCC=NOCCCCCOc1c(Cl)cc(OCC=C(Cl)Cl)cc1Cl [(542), butanal O-(5-(2,6-dichloro-4-(3,3-dichloro-2-propenyloxy)phenoxy)pentyl)oxime] |  | “−” or “±” |  |  |  | mortality at 500 µg/mL (Musca domestica): ≥ 80% |
| CCON=C(CC)c1ccc(OCCCOc2c(Cl)cc(OCC=C(Cl)Cl)cc2Cl)cc1 [(318), 4′-(3-(2,6-dichloro-4-(3,3-dichloro-2-propenyloxy)phenoxy)propyloxy)propiophenone O-ethyloxime] |  | “−” or “±” |  |  |  | mortality at 500 µg/mL (Musca domestica): ≥ 80%; mortality at 100 µg/mL (Helicoverpa armigera): ≥ 80% |
| CC(COCCCCCOc1c(Cl)cc(OCC=C(Cl)Cl)cc1Cl)=NOCC(Cl)(Cl)Cl [(173), 5-(2,6-dichloro-4-(3,3-dichloro-2-propenyloxy)phenoxy)pentyloxyacetone O-(2,2,2-trichloroethyl)oxime] |  | “−” or “±” |  |  |  | mortality at 500 µg/mL (Musca domestica): ≥ 80% |
| CC(C)(C)ON=CCOCCCCCCOc1c(Cl)cc(OCC=C(Cl)Cl)cc1Cl [(91), 6-(2,6-dichloro-4-(3,3-dichloro-2-propenyloxy)phenoxy)hexyloxyacetaldehyde O-tert-butyloxime] | ≥ 80 |  | ≥ 80 | ≥ 80 | ≥ 80 | mortality at 100 µg/mL (Helicoverpa armigera): ≥ 80% |
| CC(COCCCCCOc1c(Cl)cc(OCC=C(Cl)Cl)cc1Cl)=NOC(=O)C(C)(C)C [(178), 5-(2,6-dichloro-4-(3,3-dichloro-2-propenyloxy)phenoxy)pentyloxyacetone O-pivaloyloxime] |  | “−” or “±” |  |  |  |  |
| CCCON=Cc1ccc(COc2c(Cl)cc(OCC=C(Cl)Cl)cc2Cl)cc1 [(327), 4-(2,6-dichloro-4-(3,3-dichloro-2-propenyloxy)phenoxymethyl)benzaldehyde O-propyloxime] |  | “−” or “±” |  |  | ≥ 80 | mortality at 100 µg/mL (Helicoverpa armigera): ≥ 80% |
| CC(=NOCCCCCOc1c(Cl)cc(OCC=C(Cl)Cl)cc1Cl)C(C)C [(582), 3-methyl-2-butanone O-(5-(2,6-dichloro-4-(3,3-dichloro-2-propenyloxy)phenoxy)pentyl)oxime] |  | “−” or “±” |  |  |  | mortality at 100 µg/mL (Helicoverpa armigera): ≥ 80% |
| CCc1cc(OCC=C(Cl)Cl)cc(CC)c1OCCCCOCC=NOC(C)(C)C [(11), 4-(2,6-diethyl-4-(3,3-dichloro-2-propenyloxy)phenoxy)butyloxyacetaldehyde O-tert-butyloxime] | ≥ 80 |  |  | ≥ 80 |  | mortality at 100 µg/mL (Helicoverpa armigera): ≥ 80% |
| CC(C)(C)ON=CCOc1c(Cl)cc(OCC=C(Cl)Cl)cc1Cl [(131), (2,6-dichloro-4-(3,3-dichloro-2-propenyloxy)phenoxy)acetaldehyde O-tert-butyloxime] |  |  | ≥ 80 |  |  |  |
| CC(COCCCCCOc1c(Cl)cc(OCC=C(Cl)Cl)cc1Cl)=NOCC=C(Cl)Cl [(47), 5-(2,6-dichloro-4-(3,3-dichloro-2-propenyloxy)phenoxy)pentyloxyacetone O-(3,3-dichloro-2-propenyl)oxime] | ≥ 80 |  | ≥ 80 | ≥ 80 | ≥ 80 |  |
| CC(C)(C)ON=CCOCCCOc1c(Cl)cc(OCC=C(Cl)Cl)cc1Cl [(90), 3-(2,6-dichloro-4-(3,3-dichloro-2-propenyloxy)phenoxy)propyloxyacetaldehyde O-tert-butyloxime] | ≥ 80 |  | ≥ 80 | ≥ 80 | ≥ 80 |  |
